Laboratory results reported in US20240254134A1, “AGELASTATIN A DERIVATIVES AND RELATED METHODS” (ROMO, Daniel, priority 2021, published 2024).
Like-named read-outs stand apart in the source and are kept apart here.

Key:
[1] = Stability studies of pyrrole-derived carbinolamines 18a-18c (1H NMR); type: physicochemical; details: in CD3OD
Experimental: We synthesized pyrrole carboxylic amides 17a-c to study the equilibrium between the corresponding carbinolamines and pyrrolo ketones (FIG. 5). Reduction of 2-azidocyclopentanone and condensation with pyrrole-1H-carboxylic acid gave amide 17b. Upon treatment of ketone 17b with Et3N, cyclization gave the corresponding carbinolamine 18b in 73% yield (>19:1 dr, 600 MHz ^1H NMR). […] When resubjected to NEt3/CH2Cl2 at ambient temperature (22° C.) for 16 h, only a small amount of the ring-opened keto pyrrole 17b was generated leading to an equilibrium ratio of 11:1 (18b/17b) favoring the cyclized form as judged by ^1H NMR. […] In contrast, the 5-bromo pyrrole analog 17a, that most closely mimics the targeted 7-hydroxy AglA, disfavored the closed form 18a.
To a stirred solution of carbinolamine 18b (3.0 mg, 0.016 mmol, 1.0 equiv) in dichloromethane (0.32 mL) was added triethylamine (6.6 μl, 0.047 mmol, 3.0 equiv).
To a stirred solution of carbinolamine 18c (1.2 mg, 0.0044 mmol, 1.0 equiv) was added a solution of triethylamine in dichloromethane (0.1 mL, the solution was made by mixing 19 μl triethylamine and 1.0 mL dichloromethane).
To a 1.0 dram vial was charged 17a (2.7 mg, 0.01 mmol, 1.0 equiv) and a solution of triethylamine in dichloromethane (0.23 mL, […], 3.0 equiv. The solution was made by mixing 19 μl triethylamine and 1.0 mL dichloromethane).
In a 1.5 dram vial, carbinolamine 18b (2.6 mg, 0.014 mmol, 1.0 equiv) was dissolved in THF (0.14 mL) and MeOH (0.14 mL) and the mixture was cooled to 0° C. N-bromosuccinamide (2.5 mg, 0.0142 mmol, 1.05 equiv) was added and the reaction was allowed to warm up to ambient temperature (22° C.). After stirring for 4 h, TLC indicated there was no more starting material and the reaction mixture was concentrated and purified by column chromatography on silica (MeOH/CH2Cl2, 0 to 20%) to give a mixture of 18a/18c/17a (2.4 mg, 65%) in 1:0.6:0.44 ratio. This mixture was monitored by NMR to probe the stability of the 5-bromo derivative in CD3OD. […]

[2] = target: osteopontin (OPN, encoded by SPP1) (Homo sapiens, UniProt P10451); details: cited from earlier work
Chain of osteopontin (OPN, encoded by SPP1) (P10451 17-314, species assumed): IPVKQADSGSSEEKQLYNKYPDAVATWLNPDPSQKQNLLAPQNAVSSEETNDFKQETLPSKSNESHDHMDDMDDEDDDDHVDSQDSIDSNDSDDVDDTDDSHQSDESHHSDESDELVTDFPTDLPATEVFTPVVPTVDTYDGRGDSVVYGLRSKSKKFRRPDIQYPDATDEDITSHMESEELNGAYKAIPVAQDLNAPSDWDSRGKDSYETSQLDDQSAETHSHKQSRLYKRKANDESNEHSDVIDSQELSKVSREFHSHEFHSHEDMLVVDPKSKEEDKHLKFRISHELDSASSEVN

[3] = tested on: glycogen synthase kinase-3β; details: cited from earlier work
Chain of glycogen synthase kinase-3β (P49841 whole entry): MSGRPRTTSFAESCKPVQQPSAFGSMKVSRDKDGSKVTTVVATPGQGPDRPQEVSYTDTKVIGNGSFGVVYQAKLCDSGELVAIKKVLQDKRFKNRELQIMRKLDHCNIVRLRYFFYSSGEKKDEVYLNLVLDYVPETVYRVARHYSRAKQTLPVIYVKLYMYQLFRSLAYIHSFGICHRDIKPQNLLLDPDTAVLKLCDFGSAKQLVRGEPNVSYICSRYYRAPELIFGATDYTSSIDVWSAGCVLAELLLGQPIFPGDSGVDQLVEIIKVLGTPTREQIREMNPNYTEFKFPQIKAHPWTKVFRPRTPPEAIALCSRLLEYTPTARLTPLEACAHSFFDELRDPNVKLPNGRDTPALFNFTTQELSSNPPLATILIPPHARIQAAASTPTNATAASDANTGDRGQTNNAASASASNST

[4] = tested on: peptidyl transfer center (PTC) of the ribosome; details: HeLa cells; cited from earlier work
[5] = tested on: Cancer cell lines (MDA-MB-231, MCF7, Caco2, or U87); experiment: Cancer cell line cytotoxicity, span over all cell lines studied; type: cell-based; details: Homo sapiens; all cell lines studied except Caco-2; read-out: activity against all cell lines studied (span of values)
Experimental: (§1) Cancer Cell Line Cytotoxicity Assays Cancer cell lines (MDA-MB-231, MCF7, Caco2, or U87) were plated on 96-well plates at 2,000 cells per well and incubated for 24 h at 37° C., 5% CO2. AglA and derivatives were dissolved in DMSO, diluted to the appropriate concentrations, and the compound solutions or equivalent concentration of solvent (vehicle) were added to the plate and incubated for 72 h at 37° C., 5% CO2. Following the manufacturer protocol, 20 μL of CellTiter 96® AQueous One Solution Cell Proliferation Assay (MTS, Promega), or CellTiter-Blue@ Cell Viability Assay (resazurin, Promega) was added. The plate was allowed to develop for 1-4 h at 37° C., 5% CO2 and evaluated at 490 nm on an AccuSkan Go (Fisher Scientific) or at 560 nm excitation and 590 nm emission on a VarioSkan Lux Multimode Microplate Reader (Fisher Scientific).

[6] = tested on: Caco2; experiment: Cancer cell line cytotoxicity assay (MTS or resazurin, 72 h); type: cell-based; details: Caco2, 72 h incubation
Experimental: as §1

[7] = tested on: MCF7; experiment: as above; type: cell-based; details: MCF7, 72 h incubation
Experimental: as §1

[8] = tested on: MDA-MB-231; experiment: as above; type: cell-based; details: MDA-MB-231, 72 h incubation
Experimental: as §1

[9] = tested on: U87; experiment: as above; type: cell-based; details: glioblastoma cell line U87, 72 h incubation
Experimental: as §1

[10] = as above; type: cell-based; details: human
Experimental: as §1

[11] = Stability of 7-hydroxy AglA derivatives (1H NMR); type: physicochemical
[12] = tested on: HeLa cells; details: cited from earlier work

O=C1NC2CCCC2(O)n2c(Br)ccc21 (stereo not shown) [18a]
stability of carbinolamine under neutral conditions [1]: opened rapidly in CD3OD

O=C1NC2CCCC2(O)n2cc(Br)cc21 (stereo not shown) [18c]
stability of carbinolamine under neutral conditions [1]: stable under neutral conditions

Agelastatin A [AglA]
inhibition of osteopontin [2]: inhibition of osteopontin | inhibition of expression of glycogen synthase kinase-3β [3]: inhibits the expression | binding to the peptidyl transfer center of the ribosome [4]: binds to the peptidyl transfer center (PTC) of the ribosome

CN1C(=O)N[C@H]2[C@@H]3NC(=O)c4ccc([N+](=O)[O-])n4[C@@H]3C[C@]21O [compound 37, 13-nitro AglA]
EC50 [5]: 1.16 to 35.4 µM

CO[C@@]12C[C@H]3OC(c4ccc(Br)[nH]4)=N[C@H]3[C@@H]1NC(=O)N2C [26a]
cytotoxicity EC50 [6]: no activity | cytotoxicity EC50 [7]: no activity | cytotoxicity EC50 [8]: no activity | cytotoxicity EC50 [9]: no activity

CN1C(=O)N[C@H]2[C@@H]3NC(=O)c4cccn4[C@]3(O)C[C@]21O (racemic) [compound 24, 7-hydroxy-13-des-bromo AglA]
EC50 at 72 h ([10]; Caco2 cells, Caco2, 72 h incubation): > 250 µM | EC50 at 72 h ([10]; MCF7 cells, MCF7, 72 h incubation): > 250 µM | EC50 at 72 h ([10]; MDA-MB-231 cells, MDA-MB-231, 72 h incubation): > 250 µM | EC50 at 72 h ([10]; U87 glioblastoma cells, glioblastoma cell line U87, 72 h incubation): 171 ± 8 µM | stability by 1H NMR ([11]; stored in CD3OD or DMSO-d6 at ambient temperature (22° C.) for 7 days): quite stable

O=C1NC2CCCC2(O)n2cccc21 (stereo not shown) [18b]
stability of carbinolamine under neutral conditions [1]: stable in CD3OD for several days

13-des-bromo AglA
drop in potency compared to AglA [12]: ~500 X

7-hydroxy AglA [7-OH AglA]
stability (ring-closed carbinolamine vs ring opened ketopyrrole tautomer) [11]: instability | stability (ring-closed carbinolamine vs ring opened ketopyrrole tautomer) ([11]; listed as 7-hydroxy AglA): unstable
